Measurements as given in patent US5593970A, “Heterocyclic anthracycline analogs” (priority 1994, dated 1997).
pIC50: −log10 of the molar value. Structures can show the parent of a compound that is named as a salt. Where two headings read alike, the source gives them in different places.

Legend:
Test in all cases: Microculture tetrazolium assay
Assay type in all cases: cell-based
SKVLB = conditions: for pIC50: SKVLB; for VLB/OV3: IC50 ratio SKVLB/SKOV3
LOX = tested on: LOX
SKOV3 = conditions: Homo sapiens, SK-OV-3, SKOV3
HT29 = conditions: Homo sapiens, HT-29, HT29
T47D = conditions: Homo sapiens

Structure (SMILES)	pIC50 (SKVLB)	pIC50 (LOX)	pIC50 (SKOV3)	pIC50 (HT29)	VLB/OV3 (SKVLB)	pIC50 (SKVLB; read-out: IC50)	pIC50 (LOX; read-out: IC50)	pIC50 (SKOV3; read-out: IC50)	pIC50 (HT29; read-out: IC50)	pIC50 (T47D; read-out: IC50)	pIC50 (T47D)
COP(=O)(CC(=O)[C@H]1CC2=C(C(=O)c3cc4ccccc4c(O)c3C2=O)[C@H](O[C@H]2C[C@H](NC(=O)C(F)(F)F)[C@H](O)[C@H](C)O2)O1)OC [BCH-1679]	5.44	5.96	5.92	5.96							
CC(=O)[C@H]1CC2=C(C(=O)c3cc4ccccc4c(O)c3C2=O)[C@H](O[C@@H]2O[C@@H](C)[C@@H](O)[C@@H](O)C2I)O1 (some centres unmarked) [BCH-1681]					0.73	6.17	6.34	6.04	6.91		
CC(NC(=O)C(F)(F)F)C1Cc2c(O)c3c(c(O)c2C(O[C@H]2C[C@H](O)[C@H](O)[C@H](C)O2)O1)C(=O)c1ccccc1C3=O (some centres unmarked) [BCH-1682]						< 4.00	4.79	4.61	4.59		
CC(N)C1Cc2c(O)c3c(c(O)c2C(O[C@H]2C[C@H](O)[C@H](O)[C@H](C)O2)O1)C(=O)c1ccccc1C3=O (stereo partly drawn) [BCH-1683, (1'S ,1S,3R)-3(aminoethyl)-5,12-dihydroxyl-1(2,3,6-trideoxy-3,4-dihydroxy-L-lyxohexopyranose)-6,11-dioxo-3,4,6,11-tetrahydro-1H-anthra[2,3-c]pyran hydrochloride]					3.71	4.94	5.64	5.51	5.87		
CC(=O)[C@@H]1Cc2c(O)c3c(c(O)c2[C@@H](O[C@H]2O[C@H](CO)[C@@H](O)[C@H](O)[C@H]2N)O1)C(=O)c1ccccc1C3=O [BCH-1685, (1'R, 1R,3S)-3-aceto-5,12-dihydroxy-1(2-deoxy-2-amino-D-glucopyranose)-6,11-dioxo-3,4,6,11-tetrahydro-1H-anthra-[2,3-c]pyran]					65.68	4.27	6.17	6.09	5.71		
C=CC[C@H]1CC2=C(C(=O)c3cc4ccccc4c(O)c3C2=O)[C@H](O[C@H]2C[C@H](NC(=O)C(F)(F)F)[C@H](O)[C@H](C)O2)O1 [BCH-1686, (1'S,1S,3S)-3-(6-hydroxy-1-(2',3',6'-trideoxy-3'-trifluoroacetamido-4'-hydroxy-L-lyxohexopyranose)-5,12-dioxo-3,4,5,12-tetrahydroanthraceno-[2,3-C]pyran-3-yl)propene]					2.60	5.60	6.16	6.01	5.74		
C=CC[C@@H]1CC2=C(C(=O)c3cc4ccccc4c(O)c3C2=O)[C@@H](O[C@H]2C[C@H](NC(=O)C(F)(F)F)[C@H](O)[C@H](C)O2)O1 [BCH-1687, (1S,1R,3R)-3-(6-hydroxy-1-(2',3',6'-trideoxy-3'-trifluoroacetamido-4'-hydroxy-L-lyxohexopyranose)-5,12-dioxo-3,4,5,12-tetrahydroanthraceno-[2,3-c]pyran-3-yl)propene]					2.35	5.73	6.15	6.10	5.91		
C=CC[C@@H]1CC2=C(C(=O)c3cc4ccccc4c(O)c3C2=O)[C@@H](O[C@H]2C[C@H](N)[C@H](O)[C@H](C)O2)O1 [BCH-2005, (1'S,1R,3R)-3-(6-hydroxy-1-(2',3',6'-trideoxy-3'-amino-4'-hydroxy-L-lyxohexopyranose)-5,12-dioxo-3,4,5,12-tetrahydroanthraceno-[2,3-c]pyran-3-yl)propene hydrochloride]					1.07	6.44	6.86	6.47	6.61		
C=CC[C@@H]1Cc2c(O)c3c(c(O)c2[C@@H](O[C@H]2C[C@H](NC(=O)C(F)(F)F)[C@H](O)[C@H](C)O2)O1)C(=O)c1ccccc1C3=O [BCH-2108, (1'S,1R,3R)-3-(5,12-dihydroxy-1-(2',3',6'-trideoxy-3'-trifluoroacetamido-4'-hydroxy-L-lyxohexopyranose)-6,11-dioxo-3,4,5,12-tetrahydroanthraceno-[2,3-c]pyran-3-yl)propene]					1.25	4.84		4.94	5.07	4.92	
C=CC[C@H]1Cc2c(O)c3c(c(O)c2[C@H](O[C@H]2C[C@H](NC(=O)NCCCl)[C@H](O)[C@H](C)O2)O1)C(=O)c1ccccc1C3=O [BCH-2110]	5.55		5.61	5.82	1.14						5.61
CC(=O)C1Cc2c(O)c3c(c(O)c2C(OC2CCC(NC(=O)N(CCCl)N=O)CC2)O1)C(=O)c1ccccc1C3=O [BCH-2116, (1R,3S) and (1S ,3R)-3-aceto-6,11-dioxo-5,12-dihydroxy-1(4-chloroethylnitrosoureido-cyclohexyl-oxy)-3,4,6,11-tetrahydro-1H-anthra[2,3-C]pyran]	4.30		4.73	4.63	2.68						4.64
